Data taken from article PMC11972359, “Flexibility-tuning of dual-display DNA-encoded chemical libraries facilitates cyclic peptide ligand discovery” (Nature Communications, 2025).
pIC50, pKd: −log10 of the molar value.

target: T1, placental alkaline phosphatase (PLAP) (Homo sapiens, UniProt P05187); test: PLAP inhibition assay (pNPP substrate); format: biochemical; settings: off-DNA; pH 10 (activation buffer pH 9.8); read-out: IC50 (determined fit)
T1 construct: AviTag (biotinylated in vitro by BirA); 6xHis-tag; made in house; host or cells: Chinese hamster ovary (CHO) cells
Description: For the PLAP inhibition assay, 500 µM of inhibitor was used for a 16-point serial dilution in 10% DMSO/activation buffer in PCR tubes. Separately, a 12.5 nM solution of PLAP and a 4.5 mM solution of p-nitrophenylphosphate (pNPP) were prepared in activation buffer (see below). 8 µL of each inhibitor dilution was mixed with 16 µL of enzyme solution and 16 µL of pNPP solution and gently mixed. The assay was allowed to develop in the dark for 30 min (activation buffer pH10: 150 mM diethanolamine, 1 mM MgCl2, 60 mM ZnCl2 in water, pH 9.8) or 1 hour (activation buffer pH9: 150 mM Tris, 1 mM MgCl2, 60 mM ZnCl2 in water, pH 9.0). 50 µL of 2 M NaOH was then added to quench the reaction. Readout was performed to detect 405 nm vs 620 nm absorption. Data was fitted using Prism 10. Raw data from PLAP measurements can be found in Supplementary Information, section 7.2.2.
Human alpha-thrombin was obtained from Prolytix (Haematologic Technologies) - BioConnect Website and used in FP and inhibition assays. Biotinylated thrombin used for selections was obtained from Sigma Aldrich.
The recombinant human placental alkaline phosphatase (hPLAP) labelled with AviTag™ and 6xHis-tag was produced in Chinese hamster ovary (CHO) cells and was purified by Ni-NTA affinity chromatography and size-exclusion chromatography. The in-vitro biotinylation of the protein is mediated by BirA protein system. “Early-fraction” is the final material used for fluorescence polarization and inhibition experiments.
Figure S32: Quality characterization of recombinant hPLAP. A. The size exclusion chromatogram of purifying recombinant hPLAP expressed in CHO cells after Ni-NTA affinity chromatography purification and biotinylation. […] The absorbances at 450nm were measured with/without the presence of hPLAP and/or human PLAP antibody. […]
Protocol was adapted from Habeshian et al. 12. […] Fluorescence (excitation at 360 nm, emission at 465 nm) was measured every 3 min for 30 min. […] Data was measured in triplicate. […]
and gently mixed. […] Readout was performed to detect 405 nm vs 620 nm absorption. […]

T1 sequence (P05187 23-506 limits assumed): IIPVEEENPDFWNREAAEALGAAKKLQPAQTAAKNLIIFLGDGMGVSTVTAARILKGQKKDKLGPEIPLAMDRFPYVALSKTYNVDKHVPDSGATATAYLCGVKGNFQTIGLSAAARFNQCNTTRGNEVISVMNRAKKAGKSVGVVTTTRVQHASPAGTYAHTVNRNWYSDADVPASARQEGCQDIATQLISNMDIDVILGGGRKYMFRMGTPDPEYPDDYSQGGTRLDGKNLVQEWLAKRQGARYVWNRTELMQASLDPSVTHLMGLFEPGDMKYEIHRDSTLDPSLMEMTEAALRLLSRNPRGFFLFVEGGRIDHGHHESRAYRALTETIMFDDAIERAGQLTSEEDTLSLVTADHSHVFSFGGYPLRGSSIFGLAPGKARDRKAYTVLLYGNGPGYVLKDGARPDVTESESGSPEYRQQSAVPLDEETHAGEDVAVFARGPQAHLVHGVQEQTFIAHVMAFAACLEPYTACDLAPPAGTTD

`NC(=O)CSC[C@H](NC(=O)C[C@H](Cc1ccccc1Cl)NC(=O)[C@@H](N)Cc1ccccc1Cl)C(=O)NCCCCCC(=O)N[C@@H](CCCCNC(=S)Nc1ccc2c(c1)C(=O)OC21c2ccc(O)cc2Oc2cc(O)ccc21)C(N)=O` [Compound 21] was tested, and the pIC50 was 4.68.

same assay, conditions: off-DNA; pH not printed with the values, pH 9 implied by b30; mean of n=3; read-out: IC50

Going from `NC(=O)CSC[C@H](NC(=O)C[C@H](Cc1ccccc1Cl)NC(=O)[C@@H](N)Cc1ccccc1Cl)C(=O)NCCCCCC(=O)N[C@@H](CCCCNC(=S)Nc1ccc2c(c1)C(=O)OC21c2ccc(O)cc2Oc2cc(O)ccc21)C(N)=O` [Compound 21] to `C#CCN1CCC[C@H]1C(=O)N[C@H](CC(=O)N[C@@H](CSC1CC(=O)N(CCN2C(=O)CC(SC[C@H](NC(=O)C[C@H](Cc3ccccc3Cl)NC(=O)[C@@H](N)Cc3ccccc3Cl)C(=O)NCCCCCC(=O)N[C@@H](CCCCNC(=S)Nc3ccc4c(c3)C(=O)OC43c4ccc(O)cc4Oc4cc(O)ccc43)C(N)=O)C2=O)C1=O)C(N)=O)Cc1ccccc1Cl` (stereo partly shown) [Compound 22], the pIC50 rises from 5.60 to 5.84 (0.24 log units). The second is the more potent here.

target: streptavidin (Streptomyces avidinii, UniProt P22629); test: biochemical; format: binding; settings: not given
Description: (§1) LNA5 and LNA3 conjugates were hybridized by mixing 25 µL of LNA5 (2 µM) and 25 µL of LNA3 (2 µM) conjugates in water and heating to 70 °C for 5-10 min. After cooling down the solution to room temperature, 950 µL of 1x PBS was added to the LNA solution. The hybridized LNA conjugates were then tested via fluorescence polarization.
If the LNA conjugates were clicked together, they were diluted to 1 µM, 50 µL of a clicked conjugate was diluted with 950 µL 1x PBS and tested by fluorescence polarization.
(§2) Separately, a 16-point serial dilution of protein was performed in PBS in PCR tubes. 4 µL of the 50 nM conjugate was mixed with 4 µL of each protein dilution in black 384-well plates to a final volume of 8 µL. The plate was incubated for 30 min in the dark and centrifuged briefly to remove bubbles. Fluorescence anisotropy was measured at 535 nm. Data was fitted using Prism 10. Raw data from experimental FP measurements can be found in Supplementary Information, section 7.1.
7.1. Fluorescence Polarization
as §1, with “mQ” for “water”, “polarization experiment.” for “polarization.”
If the LNA conjugates were clicked together, they were diluted to 1 µM, 50 µL of a clicked conjugate could then be taken, diluted with 950 µL 1x PBS and tested via fluorescence […]
All other off-DNA fluoresceinated compounds were diluted to 50 nM in 1xPBS containing 5% […]
as §2, with “Data was obtained and fitted using” for “Data was fitted using”, “Prism 10.” for “Prism 10. Raw data from experimental FP measurements can be found in Supplementary Information, section 7.1.”

Chain of streptavidin (P22629 25-183): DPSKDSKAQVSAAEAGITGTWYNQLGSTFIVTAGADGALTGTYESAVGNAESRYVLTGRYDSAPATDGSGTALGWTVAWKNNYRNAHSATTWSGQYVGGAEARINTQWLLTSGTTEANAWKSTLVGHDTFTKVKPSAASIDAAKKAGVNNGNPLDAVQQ

`CC(C)C[C@@H]1C(=O)N2Cc3cc(sc3C2)C(=O)N[C@H](C(=O)NCCCCCC(=O)N[C@@H](CCCCNC(=O)c2ccc3c(c2)C(=O)OC32c3ccc(O)cc3Oc3cc(O)ccc32)C(N)=O)CSCCS(=O)(=O)CS(=O)(=O)CCSC[C@@H](C(N)=O)NC(=O)[C@@H](CC2CCCCC2)NC(=O)[C@@H]2CCCN2Cc2cn1nn2` [Compound 7-L1] and `CC(C)C[C@@H]1C(=O)N2Cc3cc(sc3C2)C(=O)N[C@H](C(=O)NCCCCCC(=O)N[C@@H](CCCCNC(=O)c2ccc3c(c2)C(=O)OC32c3ccc(O)cc3Oc3cc(O)ccc32)C(N)=O)CSC/C=C\CSC[C@@H](C(N)=O)NC(=O)[C@@H](CC2CCCCC2)NC(=O)[C@@H]2CCCN2Cc2cn1nn2` [Compound 7-L5] cannot be ordered by pKd: < 5.30 for the first, < 5.30 for the second.

`CC(C)C[C@@H]1C(=O)N2Cc3cc(sc3C2)C(=O)N[C@H](C(=O)NCCCCCC(=O)N[C@@H](CCCCNC(=O)c2ccc3c(c2)C(=O)OC32c3ccc(O)cc3Oc3cc(O)ccc32)C(N)=O)CSCc2ccc(cc2)CSC[C@@H](C(N)=O)NC(=O)[C@@H](CC2CCCCC2)NC(=O)[C@@H]2CCCN2Cc2cn1nn2` [Compound 7-L2] and `CC(C)C[C@@H]1C(=O)N2Cc3cc(sc3C2)C(=O)N[C@H](C(=O)NCCCCCC(=O)N[C@@H](CCCCNC(=O)c2ccc3c(c2)C(=O)OC32c3ccc(O)cc3Oc3cc(O)ccc32)C(N)=O)CSCc2cccc(c2)CSC[C@@H](C(N)=O)NC(=O)[C@@H](CC2CCCCC2)NC(=O)[C@@H]2CCCN2Cc2cn1nn2` [Compound 7-L3] cannot be ordered by pKd: < 5.30 for the first, < 5.30 for the second.

`CC(C)C[C@H](C(=O)N1Cc2cc(C(=O)N[C@@H](CSCC(N)=O)C(=O)NCCCCCC(=O)N[C@@H](CCCCNC(=O)c3ccc4c(c3)C(=O)OC43c4ccc(O)cc4Oc4cc(O)ccc43)C(N)=O)sc2C1)n1cc(CN2CCC[C@H]2C(=O)N[C@H](CC2CCCCC2)C(=O)N[C@@H](CSCC(N)=O)C(N)=O)nn1` [Compound 7-L0] and `NC(=O)CSC[C@H](NC(=O)[C@@H](CC1CCCCC1)NC(=O)[C@@H]1CCCN1Cc1cn([C@H](CC2CCC2)C(=O)N2Cc3cc(C(=O)N[C@@H](CSCC(N)=O)C(=O)NCCCCCC(=O)N[C@@H](CCCCNC(=O)c4ccc5c(c4)C(=O)OC54c5ccc(O)cc5Oc5cc(O)ccc54)C(N)=O)sc3C2)nn1)C(N)=O` [Compound 8-L0] are within 0.2 log units of each other in pKd: 6.76 for the first, 6.93 for the second.

In the case of `CC(C)C[C@@H]1C(=O)N2Cc3cc(sc3C2)C(=O)N[C@H](C(=O)NCCCCCC(=O)N[C@@H](CCCCNC(=O)c2ccc3c(c2)C(=O)OC32c3ccc(O)cc3Oc3cc(O)ccc32)C(N)=O)CSC/C=C/CSC[C@@H](C(N)=O)NC(=O)[C@@H](CC2CCCCC2)NC(=O)[C@@H]2CCCN2Cc2cn1nn2` [Compound 7-L4], the pKd was < 5.30.
